Consider one molecule from patent US20060263294A1, “Tumor targeting agents and uses thereof” (KARYON OY, priority 2002, published 2006).

This test concerns C8161M/T1 melanoma cells tumours. Briefly: Therapeutic effect of targeting agent comprising cytotoxic effector unit on melanoma tumors. The test is classed as in vivo, Athymic-nu mice. As to conditions: 1,43 mg/kg i.v. twice a week, five doses; s.c. C8161M/T1 melanoma; FIG. 1. Here is the method: 1 million C8161M/T1 melanoma cells were injected subcutaneously into flank of eight Athymic-nu mice and tumours were allowed to grow for one week. The mice were then divided into three groups those received the following treatments: • Group DMEM: two mice, DMEM only • Group Dox: two mice, 1,43 mg/kg doxorubicin dissolved in DMEM • Group pept+dox: four mice, 1,43 mg/kg Dxrb-Aoa-DLRSK (doxorubicin linked to targeting mofif LRS) dissolved in DMEM (dose equimolar to Group Dox)
Treatments were administered i.v. twice a week (Tuesdays and Fridays), total of five doses were injected. Tumours were measured with a calliper in two perpendicular directions on each injection day and on the day the animals were sacrificed. Tumour volume was calculated by the formula for ellipsoid: Volume=(length×width^2)×0.5

Bridge positions count the residues as written; N and C are the ends. Peptide text beside a SMILES is read from it. * marks the point of attachment. X1 = COc1cccc2c1C(=O)c1c(O)c3c(c(O)c1C2=O)C[C@@](C)(/C(CO)=N/OCC(=O)*)C[C@@H]3OC1CC(N)C(O)C(C)O1

`COc1cccc2c1C(=O)c1c(O)c3c(c(O)c1C2=O)C[C@@](C)(/C(CO)=N/OCC(=O)N[C@H]1CC(=O)NCCCC[C@@H](C(=O)O)NC(=O)[C@H](CO)NC(=O)[C@H](CCCNC(=N)N)NC(=O)[C@H](CC(C)C)NC1=O)C[C@@H]3OC1CC(N)C(O)C(C)O1` (some centres unmarked) [Dxrb-Aoa-DLRSK] (X1-DLRSK-OH; lactam 1-5): the “selective targeting to melanoma tumor in vivo” value was “selectively targets to melanoma tumor in vivo” and the “therapeutic effect (tumour volume) compared with doxorubicin” value is reported as “significantly increases the therapeutic effect of doxorubicin”.
